US7973069B2 (PTC Therapeutics, Inc., priority 2004, dated 2011)
Values joined by “and” are separate entries in the source; they are usually repeats but may differ in a detail not shown here. Equal values may be shown once.

Tested on: HCV replicon
Assay type: cell-based

SMILES | IC50
CCCn1c(-c2cccc(N)c2)c(C#N)c2cc(OCc3ccccc3)ccc21 [Compound 866] | 0.5 to 2 µM
CCCS(=O)(=O)Nc1ccc(-c2c(C#N)c3ccc(OC(F)F)cc3n2C(C)C)cc1 [Compound 867] | 0.5 to 2 µM
CC(C)n1c(-c2ccc(NS(=O)(=O)C3CC3)cc2)c(C#N)c2ccc(OC(F)F)cc21 [Compound 868] | < 0.5 µM
CCn1c(-c2ccc(N)cc2)c(C#N)c2ccc(OC(F)F)cc21 [Compound 870] | 0.5 to 2 µM
CCn1c(-c2ccc(NS(=O)(=O)C3CC3)c(F)c2)c(C#N)c2ccc(OC)cc21 [Compound 873] | > 2 µM
CCn1c(-c2ccc(NC(=O)OC)c(F)c2)c(C#N)c2ccc(OC)cc21 [Compound 875] | 0.5 to 2 µM
CCOC(=O)Nc1ccc(-c2c(C#N)c3ccc(OC)cc3n2CC)cc1F [Compound 876] | 0.5 to 2 µM
CCn1c(-c2ccc(NC(=O)OC(C)C)c(F)c2)c(C#N)c2ccc(OC)cc21 [Compound 878] | 0.5 to 2 µM
CCn1c(-c2ccc(N)c(F)c2)c(C#N)c2ccc(OC)cc21 [Compound 880] | 0.5 to 2 µM
CCCS(=O)(=O)Nc1ccc(-c2c(C#N)c3ccc(OC(F)(F)F)cc3n2CC)cc1 [Compound 882] | < 0.5 µM
CCn1c(-c2ccc(NS(=O)(=O)C3CC3)cc2)c(C#N)c2ccc(OC(F)(F)F)cc21 [Compound 883] | < 0.5 µM
CCn1c(-c2ccc(NS(=O)(=O)C(C)C)cc2)c(C#N)c2ccc(OC(F)(F)F)cc21 [Compound 884] | < 0.5 µM
CCCCS(=O)(=O)Nc1ccc(-c2c(C#N)c3ccc(OC(F)(F)F)cc3n2CC)cc1 [Compound 885] | < 0.5 µM
CCn1c(-c2ccc(NC(=O)OC)cc2)c(C#N)c2ccc(OC(F)(F)F)cc21 [Compound 886] | 0.5 to 2 µM
CCOC(=O)Nc1ccc(-c2c(C#N)c3ccc(OC(F)(F)F)cc3n2CC)cc1 [Compound 887] | 0.5 to 2 µM
CCn1c(-c2ccc(NC(=O)OCCF)cc2)c(C#N)c2ccc(OC(F)(F)F)cc21 [Compound 888] | 0.5 to 2 µM
CCCOC(=O)Nc1ccc(-c2c(C#N)c3ccc(OC(F)(F)F)cc3n2CC)cc1 [Compound 889] | 0.5 to 2 µM
COc1ccc2c(C#N)c(-c3ccc(NS(=O)(=O)C4CC4)cc3)n(CC3CCCC3)c2c1 [Compound 890] | 0.5 to 2 µM
COc1ccc2c(C#N)c(-c3ccc(NS(=O)(=O)C(C)C)cc3)n(CC3CCCC3)c2c1 [Compound 891] | 0.5 to 2 µM
CCNC(=O)Nc1ccc(-c2c(C#N)c3ccc(OC(F)(F)F)cc3n2CC)cc1 [Compound 892] | 0.5 to 2 µM
CCCCNC(=O)Nc1ccc(-c2c(C#N)c3ccc(OC(F)(F)F)cc3n2CC)cc1 [Compound 894] | 0.5 to 2 µM

SMILES | IC50
CCOc1ccc2c(C#N)c(-c3ccc(NC(C)=O)cc3)n(CC)c2c1 [Compound 895] | 0.5 to 2 µM
CCOc1ccc2c(C#N)c(-c3ccc(NC(=O)CC)cc3)n(CC)c2c1 [Compound 896] | 0.5 to 2 µM
CCOc1ccc2c(C#N)c(-c3ccc(NC(=O)C4CC4)cc3)n(CC)c2c1 [Compound 897] | 0.5 to 2 µM
CCOc1ccc2c(C#N)c(-c3ccc(NC(=O)C4CCC4)cc3)n(CC)c2c1 [Compound 899] | 0.5 to 2 µM
CCOc1ccc2c(C#N)c(-c3ccc(NC(=O)Cc4ccccc4)cc3)n(CC)c2c1 [Compound 900] | 0.5 to 2 µM
CCOc1ccc2c(C#N)c(-c3ccc(NC(=O)CCc4ccccc4)cc3)n(CC)c2c1 [Compound 901] | 0.5 to 2 µM
Cn1c(-c2ccc(N3CCCS3(=O)=O)cc2)c(C#N)c2ccc(OC(F)(F)F)cc21 [Compound 902] | 0.5 to 2 µM
CCCn1c(-c2ccc(N3CCCS3(=O)=O)cc2)c(C#N)c2ccc(OC(F)(F)F)cc21 [Compound 904] | 0.5 to 2 µM
N#Cc1c(-c2ccc(N3CCCS3(=O)=O)cc2)n(CCF)c2cc(OC(F)(F)F)ccc12 [Compound 905] | < 0.5 µM
COCCn1c(-c2ccc(N3CCCS3(=O)=O)cc2)c(C#N)c2ccc(OC(F)(F)F)cc21 [Compound 906] | 0.5 to 2 µM
CCOc1ccc2c(C#N)c(-c3cccc(N4CCCS4(=O)=O)c3)n(CC)c2c1 [Compound 907] | 0.5 to 2 µM
CCn1c(-c2ccc(N3CCCS3(=O)=O)cc2)c(C#N)c2ccc(OCCn3cccn3)cc21 [Compound 908] | 0.5 to 2 µM
CCNC(=O)Nc1ccc(-c2c(C#N)c3ccc(OC)cc3n2CC)cc1F [Compound 909] | 0.5 to 2 µM
CCCCNC(=O)Nc1ccc(-c2c(C#N)c3ccc(OC)cc3n2CC)cc1F [Compound 910] | 0.5 to 2 µM
CCn1c(-c2ccc(NC(=O)NC(C)C)c(F)c2)c(C#N)c2ccc(OC)cc21 [Compound 911] | 0.5 to 2 µM
CCn1c(-c2ccc(NS(=O)(=O)C(C)C)cc2)c(C#N)c2ccc(OCCF)cc21 [Compound 912] | 0.5 to 2 µM
CCn1c(-c2ccc(NC(C)=O)cc2)c(C#N)c2ccc(OC(F)(F)F)cc21 [Compound 913] | 0.5 to 2 µM
CCC(=O)Nc1ccc(-c2c(C#N)c3ccc(OC(F)(F)F)cc3n2CC)cc1 [Compound 914] | 0.5 to 2 µM
CCn1c(-c2ccc(NC(=O)C(C)(C)C)cc2)c(C#N)c2ccc(OC(F)(F)F)cc21 [Compound 915] | 0.5 to 2 µM
CCn1c(-c2ccc(NC(=O)CCc3ccccc3)cc2)c(C#N)c2ccc(OC(F)(F)F)cc21 [Compound 916] | 0.5 to 2 µM
CCCn1c(-c2cccc(NS(=O)(=O)CC)c2)c(C#N)c2cc(OCc3ccccc3)ccc21 [Compound 919] | 0.5 to 2 µM

SMILES | IC50
CCCn1c(-c2ccc(NS(C)(=O)=O)cc2)c(C#N)c2ccc(OCc3ccccc3)cc21 [Compound 921] | 0.5 to 2 µM
CCCn1c(-c2ccc(NS(=O)(=O)CC)cc2)c(C#N)c2ccc(OCc3ccccc3)cc21 [Compound 922] | 0.5 to 2 µM
CCCn1c(-c2ccc(NS(=O)(=O)CCC)cc2)c(C#N)c2ccc(OCc3ccccc3)cc21 [Compound 923] | 0.5 to 2 µM
CCCn1c(-c2ccc(NS(=O)(=O)C3CC3)cc2)c(C#N)c2ccc(OCc3ccccc3)cc21 [Compound 924] | 0.5 to 2 µM
CCOC(=O)Nc1ccc(-c2c(C#N)c3cc(OCc4ccccc4)ccc3n2CC)cc1 [Compound 925] | 0.5 to 2 µM
CCCOC(=O)Nc1ccc(-c2c(C#N)c3cc(OCc4ccccc4)ccc3n2CC)cc1 [Compound 926] | 0.5 to 2 µM
CCn1c(-c2ccc(N)c(C)c2)c(C#N)c2ccc(OC)cc21 [Compound 927] | 0.5 to 2 µM
CCn1c(-c2ccc(NS(=O)(=O)C3CC3)cc2)c(C#N)c2ccc(OC(F)F)cc21 [Compound 929] | < 0.5 µM
CCn1c(-c2ccc(NS(=O)(=O)CCCCl)cc2)c(C#N)c2ccc(OC(F)F)cc21 [Compound 930] | < 0.5 µM
CCCS(=O)(=O)Nc1ccc(-c2c(C#N)c3ccc(OCC)cc3n2C2CCC2)cc1 [Compound 932] | < 0.5 µM
CCCS(=O)(=O)Nc1ccc(-c2c(C#N)c3ccc(OCC)cc3n2C2CCC2)cc1 [Compound 933] | 0.5 to 2 µM
CCOc1ccc2c(C#N)c(-c3ccc(NS(=O)(=O)C4CC4)cc3)n(C3CCC3)c2c1 [Compound 934] | < 0.5 µM
CCOc1ccc2c(C#N)c(-c3ccc(NS(=O)(=O)CCCCl)cc3)n(C3CCC3)c2c1 [Compound 935] | < 0.5 µM and 0.5 to 2 µM
CCOc1ccc2c(C#N)c(-c3ccc(NP(=O)(OCC)OCC)cc3)n(C3CCC3)c2c1 [Compound 936] | < 0.5 µM
CCOc1ccc2c(C#N)c(-c3ccc(NP(=O)(OC)OC)cc3)n(C3CCC3)c2c1 [Compound 937] | < 0.5 µM
CCOc1ccc2c(C#N)c(-c3ccc(N)cc3)n(C3CCC3)c2c1 [Compound 939] | 0.5 to 2 µM
N#Cc1cn(CC2CC2)c2cc(OC(F)F)ccc12 [Compound 940] | 0.5 to 2 µM
CC(C)S(=O)(=O)Nc1ccc(-c2c(C#N)c3ccc(OC(F)F)cc3n2CC2CC2)cc1 [Compound 941] | < 0.5 µM
CCOc1ccc2c(C#N)c(-c3ccc(NP(=O)(OC)OC)cc3)n(CC)c2c1 [Compound 942] | 0.5 to 2 µM
CCOP(=O)(Nc1ccc(-c2c(C#N)c3ccc(OC)cc3n2CC)cc1)OCC [Compound 943] | 0.5 to 2 µM
CCn1c(-c2ccc(NP(=O)(OC)OC)cc2)c(C#N)c2ccc(OC)cc21 [Compound 944] | 0.5 to 2 µM

SMILES | IC50
CCn1c(-c2ccc(NC(=O)OCCF)cc2)c(C#N)c2ccc(OCCF)cc21 [Compound 945] | 0.5 to 2 µM
CCn1c(-c2ccc(NC(=O)OC(C)C)cc2)c(C#N)c2ccc(OCCF)cc21 [Compound 946] | < 0.5 µM
CCn1c(-c2ccc(NC(=O)OCC(C)C)cc2)c(C#N)c2ccc(OCCF)cc21 [Compound 947] | < 0.5 µM
CCn1c(-c2ccc(NC(=O)OCc3ccccc3)cc2)c(C#N)c2ccc(OCCF)cc21 [Compound 948] | < 0.5 µM
CCCOC(=O)Nc1ccc(-c2c(C#N)c3ccc(OCC)cc3n2CC)cc1 [Compound 949] | 0.5 to 2 µM
CCOc1ccc2c(C#N)c(-c3ccc(NC(=O)OCCF)cc3)n(CC)c2c1 [Compound 950] | 0.5 to 2 µM
CCCCNC(=O)Nc1ccc(-c2c(C#N)c3ccc(OCC)cc3n2CC)cc1 [Compound 951] | 0.5 to 2 µM
CCn1c(-c2ccc(NC(=O)C3CC3)cc2)c(C#N)c2ccc(OCCN3CCN(C)CC3)cc21 [Compound 952] | 0.5 to 2 µM
CCCCS(=O)(=O)Nc1ccc(-c2c(C#N)c3ccc(OCCF)cc3n2CC)cc1 [Compound 953] | 0.5 to 2 µM
CCNC(=O)Nc1ccc(-c2c(C#N)c3ccc(OCCF)cc3n2CC)cc1 [Compound 954] | 0.5 to 2 µM
CCCNC(=O)Nc1ccc(-c2c(C#N)c3ccc(OCCF)cc3n2CC)cc1 [Compound 955] | 0.5 to 2 µM and < 0.5 µM
CCn1c(-c2ccc(NC(=O)NC(C)C)cc2)c(C#N)c2ccc(OCCF)cc21 [Compound 956] | < 0.5 µM
CCCCNC(=O)Nc1ccc(-c2c(C#N)c3ccc(OCCF)cc3n2CC)cc1 [Compound 957] | < 0.5 µM
C=CCNC(=O)Nc1ccc(-c2c(C#N)c3ccc(OCCF)cc3n2CC)cc1 [Compound 958] | 0.5 to 2 µM and < 0.5 µM
CCn1c(-c2ccc(NS(C)(=O)=O)c(C)c2)c(C#N)c2ccc(OC)cc21 [Compound 959] | 0.5 to 2 µM
CCn1c(-c2ccc(NS(=O)(=O)CC)c(C)c2)c(C#N)c2ccc(OC)cc21 [Compound 960] | 0.5 to 2 µM
CCCS(=O)(=O)Nc1ccc(-c2c(C#N)c3ccc(OC)cc3n2CC)cc1C [Compound 961] | 0.5 to 2 µM
CCn1c(-c2ccc(NS(=O)(=O)C3CC3)c(C)c2)c(C#N)c2ccc(OC)cc21 [Compound 962] | 0.5 to 2 µM
CCn1c(-c2ccc(NC(=O)OC)c(C)c2)c(C#N)c2ccc(OC)cc21 [Compound 963] | 0.5 to 2 µM
